The NIST ThermoML archive (doi:10.1021/je100313a)
“And” between values parts separate entries of the source, which are not always exact repeats. Equal entries are not always repeated.

Legend:
[1] = 101 kPa, Liquid
[2] = xn = mol fraction of the nth substance listed; settings: 101 kPa, Liquid

C1C[C@@H]2[C@H]3CC[C@H](C3)[C@@H]2C1 [exo-tetrahydrodicyclopentadiene]
[1]
Settings | mass density [kg/m3] | viscosity
293.15 K | 935.3 | 3.076 mPa·s and 3.077 mPa·s
298.15 K | 931.4 | 2.784 mPa·s
303.15 K | 927.5 | 2.525 mPa·s
313.15 K | 919.6 | 2.112 mPa·s

C1C[C@@H]2[C@H]3CC[C@H](C3)[C@@H]2C1 [exo-tetrahydrodicyclopentadiene] + CCCCCCCCCCC
[2]
Settings | mass density, 293.15 K [kg/m3] | mass density, 298.15 K [kg/m3] | mass density, 303.15 K [kg/m3] | mass density, 313.15 K [kg/m3] | viscosity, 293.15 K [mPa·s] | viscosity, 298.15 K [mPa·s] | viscosity, 303.15 K [mPa·s] | viscosity, 313.15 K [mPa·s]
x2 = 0 | 935.3 | 931.4 | 927.5 | 919.6 | 3.076 | 2.784 | 2.525 | 2.112
x2 = 0.0881 | 911.7 | 907.8 | 903.9 | 896.1 | 2.697 | 2.439 | 2.228 | 1.856
x2 = 0.1777 | 889.3 | 885.4 | 881.6 | 873.8 | 2.39 | 2.162 | 1.982 | 1.662
x2 = 0.2711 | 867.6 | 863.7 | 859.9 | 852.1 | 2.135 | 1.937 | 1.78 | 1.499
x2 = 0.3669 | 846.8 | 843 | 839.2 | 831.5 | 1.921 | 1.751 | 1.615 | 1.362
x2 = 0.4654 | 827 | 823.1 | 819.3 | 811.7 | 1.747 | 1.594 | 1.47 | 1.246
x2 = 0.5658 | 808.2 | 804.4 | 800.6 | 793 | 1.608 | 1.47 | 1.359 | 1.158
x2 = 0.6685 | 790.3 | 786.6 | 782.8 | 775.2 | 1.483 | 1.358 | 1.256 | 1.074
x2 = 0.778 | 772.6 | 768.9 | 765.2 | 757.7 | 1.373 | 1.259 | 1.167 | 1
x2 = 0.8855 | 756.5 | 752.7 | 749 | 741.6 | 1.284 | 1.177 | 1.093 | 0.941

C1C[C@@H]2[C@H]3CC[C@H](C3)[C@@H]2C1 [exo-tetrahydrodicyclopentadiene] + CCCCCCCCCCCCCC
[2]
Settings | mass density, 293.15 K [kg/m3] | mass density, 298.15 K [kg/m3] | mass density, 303.15 K [kg/m3] | mass density, 313.15 K [kg/m3] | viscosity, 293.15 K [mPa·s] | viscosity, 298.15 K [mPa·s] | viscosity, 303.15 K [mPa·s] | viscosity, 313.15 K [mPa·s]
x2 = 0 | 935.3 | 931.4 | 927.5 | 919.6 | 3.077 | 2.784 | 2.525 | 2.112
x2 = 0.0703 | 914.6 | 910.8 | 906.9 | 899.2 | 2.961 | 2.679 | 2.429 | 2.034
x2 = 0.1451 | 894.8 | 891 | 887.1 | 879.5 | 2.857 | 2.582 | 2.343 | 1.958
x2 = 0.2274 | 875.5 | 871.7 | 868 | 860.4 | 2.766 | 2.496 | 2.259 | 1.888
x2 = 0.2692 | 866.5 | 862.7 | 859 | 851.4 | 2.724 | 2.456 | 2.223 | 1.857
x2 = 0.4088 | 839.5 | 835.8 | 832.1 | 824.7 | 2.609 | 2.35 | 2.125 | 1.777
x2 = 0.5067 | 823.2 | 819.5 | 815.9 | 808.5 | 2.544 | 2.291 | 2.072 | 1.734
x2 = 0.616 | 807 | 803.4 | 799.8 | 792.5 | 2.487 | 2.243 | 2.028 | 1.698
x2 = 0.7324 | 791.7 | 788.2 | 784.6 | 777.4 | 2.438 | 2.197 | 1.983 | 1.663
x2 = 0.8606 | 776.9 | 773.4 | 769.8 | 762.7 | 2.39 | 2.151 | 1.94 | 1.629

CCCCCCCCCCCCCC [tetradecane]
[1]
Settings | mass density [kg/m3] | viscosity [mPa·s]
293.15 K | 762.9 | 2.346
298.15 K | 759.2 | 2.107
303.15 K | 755.7 | 1.897
313.15 K | 748.6 | 1.594

CCCCCCCCCCCCCC [tetradecane] + C1C[C@@H]2[C@H]3CC[C@H](C3)[C@@H]2C1
[2], x1 = 1
Settings | mass density [kg/m3] | viscosity [mPa·s]
293.15 K | 762.9 | 2.346
298.15 K | 759.2 | 2.107
303.15 K | 755.7 | 1.897
313.15 K | 748.6 | 1.594

CCCCCCCCCCC [undecane]
[1]
Settings | mass density [kg/m3] | viscosity [mPa·s]
293.15 K | 740.4 | 1.199
298.15 K | 736.7 | 1.099
303.15 K | 733 | 1.022
313.15 K | 725.6 | 0.878

CCCCCCCCCCC [undecane] + C1C[C@@H]2[C@H]3CC[C@H](C3)[C@@H]2C1
[2], x1 = 1
Settings | mass density [kg/m3] | viscosity [mPa·s]
293.15 K | 740.4 | 1.199
298.15 K | 736.7 | 1.099
303.15 K | 733 | 1.022
313.15 K | 725.6 | 0.878
